Results from ChEMBL document CHEMBL4425183, “Gold catalyzed double condensation reaction: Synthesis, antimicrobial and cytotoxicity of spirooxindole derivatives” (Bioorg Med Chem Lett, 2016).
≈ marks a conversion by molar mass, not a printed value.

Tests used:
COLO 320 = assay: cells; conditions: Homo sapiens, COLO 320, read-out: GI
Description: Cytotoxicity against human COLO320 cells assessed as cell growth inhibition at 156 uM by MTT assay relative to control

Candida albicans [1] = assay: Antifungal activity against Candida albicans MTCC 227 at 1 mg/disc after 48 hrs at 28 degC by disc diffusion method; format: functional
Candida albicans [2] = assay: Antifungal activity against Candida albicans MTCC 227 after 48 to 72 hrs at 28 degC by two fold serial dilution method; format: functional
Malassezia pachydermatis = assay: Antifungal activity against Malassezia pachydermatis at 1 mg/disc after 48 hrs at 28 degC by disc diffusion method; format: functional
[3] = system: Staphylococcus epidermidis; assay: Antibacterial activity against Staphylococcus epidermidis MTCC 3615 at 1 mg/disc after 24 hrs at 37 degC by disc diffusion method; format: functional
Salmonella typhimurium [4] = assay: Antibacterial activity against Salmonella typhimurium MTCC 1251 at 1 mg/disc after 24 hrs at 37 degC by disc diffusion method; format: functional, Salmonella enterica subsp. enterica serovar Typhimurium
Shigella flexneri [5] = assay: Antibacterial activity against Shigella flexneri MTCC 1457 at 1 mg/disc after 24 hrs at 37 degC by disc diffusion method; format: functional
Staphylococcus aureus [6] = assay: Antibacterial activity against methicillin-resistant Staphylococcus aureus at 1 mg/disc after 24 hrs at 37 degC by disc diffusion method; format: functional
Shigella flexneri [7] = assay: Antibacterial activity against Shigella flexneri MTCC 1457 after 24 hrs at 37 degC by two fold serial dilution method; format: functional; conditions: MTCC 1457, 24 h
Staphylococcus aureus [8] = assay: Antibacterial activity against methicillin-resistant Staphylococcus aureus after 24 hrs at 37 degC by two fold serial dilution method; format: functional
Salmonella typhimurium [9] = assay: Antibacterial activity against Salmonella typhimurium MTCC 1251 after 24 hrs at 37 degC by two fold serial dilution method; format: functional, Salmonella enterica subsp. enterica serovar Typhimurium; conditions: Salmonella enterica, MTCC 1251, 24 h
Klebsiella aerogenes [10] = assay: Antibacterial activity against Enterobacter aerogenes MTCC 111 at 1 mg/disc after 24 hrs at 37 degC by disc diffusion method; format: functional
Micrococcus luteus [11] = assay: Antibacterial activity against Micrococcus luteus MTCC 106 at 1 mg/disc after 24 hrs at 37 degC by disc diffusion method; format: functional
Staphylococcus aureus [12] = assay: Antibacterial activity against Staphylococcus aureus MTCC 96 at 1 mg/disc after 24 hrs at 37 degC by disc diffusion method; format: functional
Bacillus subtilis [13] = assay: Antibacterial activity against Bacillus subtilis MTCC 441 at 1 mg/disc after 24 hrs at 37 degC by disc diffusion method; format: functional
Klebsiella aerogenes [14] = assay: Antibacterial activity against Enterobacter aerogenes MTCC 111 after 24 hrs at 37 degC by two fold serial dilution method; format: functional; conditions: MTCC 111, 24 h
[15] = system: Staphylococcus epidermidis; assay: Antibacterial activity against Staphylococcus epidermidis MTCC 3615 after 24 hrs at 37 degC by two fold serial dilution method; format: functional; conditions: MTCC 3615, 24 h
Micrococcus luteus [16] = assay: Antibacterial activity against Micrococcus luteus MTCC 106 after 24 hrs at 37 degC by two fold serial dilution method; format: functional; conditions: MTCC 106, 24 h
Klebsiella pneumoniae [17] = assay: Antibacterial activity against Klebsiella pneumoniae MTCC 109 after 24 hrs at 37 degC by two fold serial dilution method; format: functional; conditions: MTCC 109, 24 h
Staphylococcus aureus [18] = assay: Antibacterial activity against Staphylococcus aureus MTCC 96 after 24 hrs at 37 degC by two fold serial dilution method; format: functional; conditions: MTCC 96, 24 h
Bacillus subtilis [19] = assay: Antibacterial activity against Bacillus subtilis MTCC 441 after 24 hrs at 37 degC by two fold serial dilution method; format: functional; conditions: MTCC 441, 24 h
Klebsiella pneumoniae [20] = assay: Antibacterial activity against Klebsiella pneumoniae MTCC 109 at 1 mg/disc after 24 hrs at 37 degC by disc diffusion method; format: functional

## O=P1(N(CCCl)CCCl)NCCCO1 (configuration not stated) [CYCLOPHOSPHAMIDE ANHYDROUS]
COLO 320
  inhibition of growth at 156 µM: 90%

## CC(=O)N1CCN(c2ccc(OCC3COC(Cn4ccnc4)(c4ccc(Cl)cc4Cl)O3)cc2)CC1 (configuration not stated) [KETOCONAZOLE]
Candida albicans [1]
  inhibition zone (IZ): 28 mm
Candida albicans [2]
  MIC: 25 µM (≈ 13.3 µg/mL)
Malassezia pachydermatis
  inhibition zone (IZ): 26 mm

## CN[C@@H]1[C@H](O[C@H]2[C@H](O[C@H]3[C@H](O)[C@@H](O)[C@H](N=C(N)N)[C@@H](O)[C@@H]3N=C(N)N)O[C@@H](C)[C@]2(O)C=O)O[C@@H](CO)[C@H](O)[C@H]1O [STREPTOMYCIN]
[3]
  inhibition zone (IZ): 25 mm
Salmonella typhimurium [4]
  inhibition zone (IZ): 18 mm
Shigella flexneri [5]
  inhibition zone (IZ): 30 mm
Staphylococcus aureus [6]
  inhibition zone (IZ): 30 mm
Shigella flexneri [7]
  MIC: 6.25 µM (≈ 3.63 µg/mL)
Staphylococcus aureus [8]
  MIC: 6.25 µM (≈ 3.63 µg/mL)
Salmonella typhimurium [9]
  MIC: 30 µM (≈ 17.4 µg/mL)
Klebsiella aerogenes [10]
  inhibition zone (IZ): 22 mm
Micrococcus luteus [11]
  inhibition zone (IZ): 26 mm
Staphylococcus aureus [12]
  inhibition zone (IZ): 14 mm
Bacillus subtilis [13]
  inhibition zone (IZ): 25 mm
Klebsiella aerogenes [14]
  MIC: 25 µM (≈ 14.5 µg/mL)
[15]
  MIC: 25 µM (≈ 14.5 µg/mL)
Micrococcus luteus [16]
  MIC: 6.25 µM (≈ 3.63 µg/mL)
Klebsiella pneumoniae [17]
  MIC: 6.25 µM (≈ 3.63 µg/mL)
Staphylococcus aureus [18]
  MIC: 6.25 µM (≈ 3.63 µg/mL)
Bacillus subtilis [19]
  MIC: 25 µM (≈ 14.5 µg/mL)
Klebsiella pneumoniae [20]
  inhibition zone (IZ): 20 mm
